In US6800659B2, “Compounds for modulating cell proliferation” (HSC Research and Development Limited Partnership, priority 2000, dated 2004):

How the values were obtained:
[1] = test system: normal bone marrow cells; experiment: CFU-GEMM assay: normal bone marrow differentiation in culture; assay type: cell-based; conditions: for inhibition of BFU-E colony formation: 20 μM
Description: (§1) The CFU-GEMM assay was performed according to Fauser and Messner (1978, Blood, 52(6) 143-8) and Messner and Fausser (1980, Blut, 41(5) 327-33) with some variations. In brief, heparinized bone marrow cells were layered over Percoll (1.077 gm/ml) (Pharmacia Fine Chemical, Piscataway N.J.) and centrifuged at 400 g at 4° C. for 10 minutes to remove neutrophils and RBCs. The fractionated BM cells at 2×10^5 cells/ml were cultured in IMDM (OCl, Toronto) containing 0.9% (vol/vol) methylcellulose supplemented with 30% FCS (Cansera Rexdale, ON.) or normal human plasma, a cocktail of cytokines containing G-CSF (10 ng/ml, Amgen), IL-3 (40 U/ml, Immunex), MGF (50 ng/ml, Immunex), Erythropoietin (2 u/ml, Epprex) or TPO (10 ng/ml, Amgen), 5×10^−5M β-2-mercaptoethanol and the specified concentration of CR4. The culture mixture was plated in 1 ml volumes into 35 mm petri dishes and incubated at 37° C., 5% CO2 in a humidified atmosphere. All cultures were evaluated at 14 days for the number of BFU-E colonies (defined as aggregates of more than 500 hemoglobinized cells or, 3 or more erythroid subcolonies), OFU-GM colonies (defined as granulocyte or monocyte-macrophage cells or both), CFU-Meg colonies (comprising 4 or more megakaryocytes) and CFU-GEMM colonies (a mixed population comprising of all elements).
as §1, with “1243-8)” for “143-8)”, “concentrations” for “concentration”, “CR19.” for “CR4.”, “hemaglobinized” for “hemoglobinized”, “subcolonies) and CFU-C” for “subcolonies), OFU-GM”, “both).” for “both), CFU-Meg colonies (comprising 4 or more megakaryocytes) and CFU-GEMM colonies (a mixed population comprising of all elements).”
as §1, with “1243-8)” for “143-8)”, “variations (British Journal of Haematology, 1992, 80, p40-48).” for “variations.”, “test compound.” for “CR4.”, “CO2,” for “CO2”, “subcolonies) and CFU-C” for “subcolonies), OFU-GM”, “both).” for “both), CFU-Meg colonies (comprising 4 or more megakaryocytes) and CFU-GEMM colonies (a mixed population comprising of all elements).”

[2] = test system: Philadelphia positive acute lymphoblastic leukemia (Ph+ ALL) cells; experiment: Colony growth of Philadelphia positive ALL cells in methylcellulose culture; assay type: cell-based, human
Description: (§2) Ph+ ALL cells were plated in 1 ml volumes, in the absence of exogenous growth factors, into 35 mm petri dishes (Nunc, Gibco) containing alpha MEM (Gibco) plus 10% FCS (Cansera Rexdale, ON.) in 0.9% (vol/vol) methylcellulose (Fluka, Switzerland) with the indicated concentrations of CR4. Cultures were set at 37° C., 5% CO2 in a humidified atmosphere. Colonies consisting of more than 20 cells were counted at 12 days or earlier using an inverted microscope.
as §2, with “ALL” for “Ph+ ALL”, “20%” for “10%”, “and” for “with”, “compound” for “CR4.”, “atmosphere” for “atmosphere.”
as §2, with “ALL” for “Ph+ ALL”, “20%” for “10%”, “ON)” for “ON.)”, “0.90%” for “0.9%”, “and” for “with”, “compound.” for “CR4.”
as §2, with “ALL” for “Ph+ ALL”, “20%” for “10%”, “and” for “with”, “CR24.” for “CR4.”, “9” for “12”
as §2, with “ALL” for “Ph+ ALL”, “20%” for “10%”, “and” for “with”, “CR19.” for “CR4.”, “9” for “12”

[3] = test system: acute lymphoblastic leukemia, Philadelphia positive ALL, acute myeloid leukemia, myeloma and B-lineage lymphoma; experiment: Growth of cancer cells in culture, summary over cell types; assay type: cell-based; conditions: for effectiveness against a variety of cell types (Acute Lymphoblastic Leukemia, Philadelphia positive Leukemia, Acute Myeloid Leukemia): in culture
[4] = test system: Philadelphia positive ALL, AML and lymphoma; experiment: High dose in vitro (ex vivo) purging assays, summary; assay type: cell-based
Text: […] Cancer cell death was effected by the induction of apoptosis. Accordingly, in another aspect of the invention, there is provided a method for killing cancer cells by ex vivo treatment of bone marrow from a patient with cancer with a compound of the invention, preferably CR4 and CR11 and then re-introducing the treated (or purged) bone marrow into the patient.

[5] = test system: normal bone marrow cells; experiment: In vitro purging of normal bone marrow, then colony assay; assay type: cell-based
Description: Heparinized bone marrow cells were layered over Percoll (1.077 gm/ml) (Pharmacia Fine Chemical, Piscataway N.J.) and centrifuged at 400 g at 4° C. for 10 minutes to remove neutrophils and RBCs.
For the purging process, the cells were resuspended at 1×10^6/ml in complete medium with or without 50 μM CR4. The cells were incubated with the CR4 for two and a half hours at 37° C., 5% CO2. At the end of this period the cells were thoroughly washed in medium to remove CR4 and then cultured at 2×10^5 cells/ml in IMDM (OCl, Toronto) containing 0.9% (vol/vol) methylcellulose supplemented with 30% FCS (Cansera Rexdale, ON.) or normal human plasma, a cocktail of cytokines containing G-CSF (10 ng/ml, Amgen), IL-3 (40 U/ml, Immunex), MGF (50 ng/ml, Immunex), Etryhropoietin (2 u/ml, Epprex) or TPO (10 ng/ml, Amgen) and 5×10^−5M b-2-mercaptoethanol. The culture mixture was plated in 1 ml volumes into 35 mm petri dishes and incubated at 37° C., 5% CO2 in a humidified atmosphere. All cultures were evaluated at 14 days for the number of BFU-E colonies (defined as aggregates of more than 500 hemaglobinized cells or, 3 or more erythroid subcolonies), CFU-C colonies (defined as granulocyte or monocyte-macrophage cells or both) and CFU-GEMM colonies (a mixed population comprising of all elements).
For the purging process, the cells were resuspended at 1×10^6/ml in complete medium with or without 50 μM CR11. The cells were incubated with the tryrphostin for seven hours at 37° C., 5% CO2. At the end of this period the cells were thoroughly washed in medium to remove CR11 and then cultured at 2×10^5 cells/ml in IMDM (OCl, Toronto) containing 0.9% (vol/vol) methylcellulose supplemented with 30% FCS (Cansera Rexdate, ON.) or normal human plasma, a cocktail of cytokines containing G-CSF (10 ng/ml, Amgen), IL-3 (40 U/ml, Immunex), MGF (50 ng/ml, Immunex), Erythropoietin (2 u/ml, Epprex) or TPO (10 ng/ml, Amgen) and 5×10^−5M β-2-mercaptoethanol. The culture mixture was plated in 1 ml volumes into 35 mm petri dishes and incubated at 37° C., 5% CO2 in a humidified atmosphere. All cultures were evaluated at 14 days for the number of BFU-E colonies (defined as aggregates of more than 500 hemoglobinized cells or, 3 or more erythroid subcolonies), CFU-C colonies (defined as granulocyte or monocyte-macrophage cells or both) and CFU-GEMM colonies (a mixed population comprising of all elements).

[6] = test system: Ph+ ALL cells; experiment: In vitro purging of Philadelphia positive ALL with CR11; assay type: cell-based, human; conditions: 50 μM, 7 hours exposure (FIG. 22)
Description: For the purging assay, the cells were resuspended in complete medium with or without CR11 as indicated and incubated at 37° C., 5% CO2 for 0-7 hours. Cells were then washed thoroughly with medium to remove the CR11, resuspended and plated in 1 ml volumes, in the absence of exogenous growth factors, into 35 mm petri dishes (Nunc, Gibco) containing alpha MEM (Gibco) plus 20% FCS (Cansera Rexdale, ON.) in 0.9% (vol/vol) methylcellulose (Fluka, Switzerland). Cultures were set at 37° C., 5% CO2 in a humidified atmosphere. Colonies consisting of more than 20 cells were counted at 9 days or earlier using an inverted microscope.

[7] = low nanomolar doses, long term exposure

## N#C/C(=C\C=C\c1ccc(O)c(O)c1)C(N)=O [CR17, (E,E)-2-Aminocarbonyl-3-(3,4-dihydroxystyryl)acrylonitrile]
[1]; 14 days (FIG. 13)
  inhibition of BFU-E colony formation: caused inhibition
[2]; 1-2.5 μM, Example 42, FIG. 8
  inhibition of cell growth: significant inhibition
[2]; 1-2.5 μM, Example 43, FIG. 9
  inhibition of cell growth: significant inhibition

## N#C/C(=C\C=C\c1ccc(O)c(O)c1)C(=O)NCc1ccc(O)c(O)c1 [CR21, (E,E)-2(3,4-Dihydroxybenzylaminocarbonyl)-3-(3,4-dihydroxystyryl)acrylonitrile]
[1]; 14 days (FIG. 13)
  inhibition of BFU-E colony formation: caused inhibition
[2]; 5 μM, Example 42, FIG. 8
  inhibition of cell growth: inhibited cell growth
[2]; 1-2.5 μM, Example 43, FIG. 9
  inhibition of cell growth: significant inhibition

## N#C/C(=C\C=C\c1ccccc1)C(=O)NCc1ccc(O)c(O)c1 [CR19, (E,E)-2-(3,4-Dihydroxybenzylaminocarbonyl)-3-styrylacrylonitrile]
[1]; 2.5 μM, 14 days (FIG. 12)
  CFU-C colony formation: boosted
  inhibition of the development of BFU-E colonies: significant inhibition
[1]; 5 μM, 14 days (FIG. 12)
  BFU-E colonies: virtually absent
  CFU-C colony formation (stimulatory effect): stimulatory effect disappeared
[1]; [7]
  normal cell growth and differentiation: unaffected
[2]; nanomolar concentrations, colonies at 9 days (FIG. 11)
  effectiveness against Ph+ ALL cells: highly effective
[3]
  effectiveness against a variety of cell types (Acute Lymphoblastic Leukemia, Philadelphia positive Leukemia, Acute Myeloid Leukemia): highly effective
[3]; [7]
  toxicity to cancer cells: highly toxic

## COc1cc(/C=C/C=C(\C#N)C(=O)NCc2ccc(O)c(O)c2)cc(OC)c1O [CR11, (EE)-2-(3,4-Dihydroxybenzylaminocarbonyl)-3-(3,5-dimethoxy-4-hydroxystyryl)acrylonitrile]
[4]
  effectiveness as ex vivo purging agents: effective
[5]; seven hours exposure to 50 μM (FIG. 21)
  BFU-E, CFU-GEMM and CFU-C colonies: all normal
[5]; seven hours exposure to 50 μM, colonies at 14 days (FIG. 21)
  inhibition of colony formation: did not result in any significant inhibition
[3]
  effectiveness against a variety of cell types (Acute Lymphoblastic Leukemia, Philadelphia positive Leukemia, Acute Myeloid Leukemia): highly effective
[6]
  killing of Ph+ ALL cells: complete killing

## COc1cc(/C=C/C=C(\C#N)C(=O)NCCO)cc(OC)c1O [CR24, (E,E)-2-(β-Ethanolaminocarbonyl)-3-(3,5-dimethoxy-4-hydroxystyryl)acrylonitrile]
[1]; either 10 or 20 μM, 14 days (FIG. 13)
  inhibition of bone marrow colony formation: minimal inhibition
[2]; between 2.5 and 5 μM, colonies at 9 days (FIG. 10)
  inhibition of cell growth: virtually complete inhibition
[2]; concentrations as low as 0.5 μM, colonies at 9 days (FIG. 10)
  effectiveness against Ph+ ALL cells: effective
